Experimental data: patent publication US20090318502A1, “Pharmaceutical Compositions Comprising a Hypoglycemic Agent and Methods of Using Same” (INTRANASAL THERAPEUTICS, INC., priority 2006, published 2009)

Experiments:
[1] = Storage stability and appearance of intranasal repaglinide formulations; format: physicochemical; conditions: solution pH
Procedure: In one embodiment, a composition of the invention comprises at least 85%, at least 87%, at least 90%, at least 92%, at least 95%, at least 97%, or at least 99% of the original hypoglycemic agent (e.g., repaglinide) after storage (closed or open vessel) at 40° C. and 75% relative humidity for a period of at least 1 week, at least 2 weeks, at least 3 weeks, at least 4 weeks, at least 6 weeks, at least 8 weeks, at least 10 weeks, at least 15 weeks, at least 20 weeks, at least 25 weeks, at least 30 weeks, at least 35 weeks, at least 40 weeks, at least 45 weeks, or at least 50 weeks The formulations described in Table 1 below have shown good stability for a period of about one month. In particular, the formulations described in Example 1 below have shown no precipitation and have remained clear and colorless for a period of about one month.

[2] = Solubility of repaglinide in formulation vehicles; format: physicochemical; conditions: in 100% methoxy-polyethylene glycol, 350

- pH of solutions in which repaglinide was often more stable [1]: less than or equal to 9
- solubility of repaglinide [2]: poorly soluble or insoluble
SMILES: CCOc1cc(CC(=O)N[C@@H](CC(C)C)c2ccccc2N2CCCCC2)ccc1C(=O)O [repaglinide, Repaglinide]
